Source: ChEMBL document CHEMBL5036304, “One Atom Makes All the Difference: Getting a Foot in the Door between SOS1 and KRAS” (J Med Chem, 2021)
Activity calls are given as the source filed them. The rule behind the calls is not given here.

Key:
SOS1-KRAS [1] = target: T1, SOS1-KRAS (Homo sapiens, UniProt Q07889); experiment: Inhibition of SOS1/KRAS G12D mutant (unknown origin) protein-protein interaction using GDP nucleotide as substrate measured after 30 mins by Alphascreen assay
[2] = target: T2, Son of sevenless homolog 1 (Homo sapiens, UniProt Q07889); experiment: Binding affinity to SOS1 (unknown origin) assessed as dissociation constant by SPR analysis
T2 sequence (Q07889 whole entry): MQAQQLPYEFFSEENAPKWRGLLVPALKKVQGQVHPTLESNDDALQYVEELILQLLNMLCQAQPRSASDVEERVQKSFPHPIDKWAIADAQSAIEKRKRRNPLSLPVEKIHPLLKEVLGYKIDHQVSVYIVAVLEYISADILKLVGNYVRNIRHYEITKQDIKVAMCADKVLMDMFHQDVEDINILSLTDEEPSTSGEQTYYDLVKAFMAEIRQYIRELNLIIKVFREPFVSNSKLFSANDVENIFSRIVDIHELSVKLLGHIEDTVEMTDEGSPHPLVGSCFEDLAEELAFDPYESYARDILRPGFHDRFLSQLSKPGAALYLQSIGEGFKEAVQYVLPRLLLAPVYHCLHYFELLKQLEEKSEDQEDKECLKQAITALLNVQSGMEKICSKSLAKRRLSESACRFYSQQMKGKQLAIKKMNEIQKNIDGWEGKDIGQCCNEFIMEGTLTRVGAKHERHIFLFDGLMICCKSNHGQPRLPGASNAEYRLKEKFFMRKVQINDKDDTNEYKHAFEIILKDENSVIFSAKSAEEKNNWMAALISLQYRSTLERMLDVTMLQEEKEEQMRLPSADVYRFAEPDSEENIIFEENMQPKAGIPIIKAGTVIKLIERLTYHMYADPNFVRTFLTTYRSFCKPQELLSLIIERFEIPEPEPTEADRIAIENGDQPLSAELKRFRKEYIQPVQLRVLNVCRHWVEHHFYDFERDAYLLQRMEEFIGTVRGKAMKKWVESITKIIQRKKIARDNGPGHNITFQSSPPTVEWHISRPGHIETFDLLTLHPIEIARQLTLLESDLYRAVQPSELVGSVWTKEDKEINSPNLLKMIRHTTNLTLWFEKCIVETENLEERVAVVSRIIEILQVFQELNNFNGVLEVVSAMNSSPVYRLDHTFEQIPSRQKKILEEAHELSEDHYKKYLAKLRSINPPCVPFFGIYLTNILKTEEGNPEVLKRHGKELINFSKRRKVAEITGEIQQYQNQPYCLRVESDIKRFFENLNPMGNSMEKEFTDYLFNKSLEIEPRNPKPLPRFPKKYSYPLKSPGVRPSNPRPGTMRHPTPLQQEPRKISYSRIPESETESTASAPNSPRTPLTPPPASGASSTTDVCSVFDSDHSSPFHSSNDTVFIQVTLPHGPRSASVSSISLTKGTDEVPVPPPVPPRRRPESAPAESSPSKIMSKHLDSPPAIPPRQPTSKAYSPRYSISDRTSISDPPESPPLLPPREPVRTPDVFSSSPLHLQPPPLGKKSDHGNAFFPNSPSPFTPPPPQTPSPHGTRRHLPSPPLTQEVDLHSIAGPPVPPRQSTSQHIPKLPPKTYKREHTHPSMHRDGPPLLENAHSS

[3] = Efflux ratio of apparent permeability from basolateral to apical side over apical to basolateral side in human Caco-2 cells at 10 uM
[4] = target: Epidermal growth factor receptor (Homo sapiens, UniProt P00533); experiment: Inhibition of EGFR (unknown origin)
SOS1-KRAS [5] = target: T1, SOS1-KRAS; experiment: Activation of SOS1/KRAS G12D mutant (unknown origin) protein-protein interaction using GDP nucleotide as substrate measured after 30 mins by Alphascreen assay
DLD-1 [6] = experiment: Induction of apoptosis in human DLD-1 cells harboring KRAS G13D mutant assessed as cleaved-PRAP at 0.1 nM measured after 24 to 48 hrs; assay type: functional, cell-based; conditions: time 24-48 hrs
DLD-1 [7] = experiment: Induction of apoptosis in human DLD-1 cells harboring KRAS G13D mutant assessed as cleaved-PRAP at 100 nM measured after 24 to 48 hrs; assay type: functional, cell-based; conditions: time 24-48 hrs
[8] = Anticancer activity against human DLD-1 cells xenografted rat model assessed as tumor growth inhibition at 50 mg/kg measured; assay type: functional; conditions: read-out: TGI
DLD-1 [9] = experiment: Induction of apoptosis in human DLD-1 cells harboring KRAS G13D mutant assessed as cleaved-PRAP measured after 24 to 48 hrs; assay type: functional, cell-based; conditions: time 24-48 hrs
[10] = Oral bioavailability in mouse; assay type: ADME, organism-based; conditions: in vivo
[11] = Metabolic stability in human hepatocytes in presence of 50% serum; assay type: ADME, cell-based, Hepatocyte
[12] = Metabolic stability in rat hepatocytes in presence of 50% serum; assay type: ADME, cell-based, Hepatocyte
[13] = Oral bioavailability in rat; assay type: ADME, organism-based; conditions: in vivo
[14] = Metabolic stability in mouse hepatocytes in presence of 50% serum; assay type: ADME, cell-based, Hepatocyte

Sequence of Epidermal growth factor receptor (P00533 whole entry): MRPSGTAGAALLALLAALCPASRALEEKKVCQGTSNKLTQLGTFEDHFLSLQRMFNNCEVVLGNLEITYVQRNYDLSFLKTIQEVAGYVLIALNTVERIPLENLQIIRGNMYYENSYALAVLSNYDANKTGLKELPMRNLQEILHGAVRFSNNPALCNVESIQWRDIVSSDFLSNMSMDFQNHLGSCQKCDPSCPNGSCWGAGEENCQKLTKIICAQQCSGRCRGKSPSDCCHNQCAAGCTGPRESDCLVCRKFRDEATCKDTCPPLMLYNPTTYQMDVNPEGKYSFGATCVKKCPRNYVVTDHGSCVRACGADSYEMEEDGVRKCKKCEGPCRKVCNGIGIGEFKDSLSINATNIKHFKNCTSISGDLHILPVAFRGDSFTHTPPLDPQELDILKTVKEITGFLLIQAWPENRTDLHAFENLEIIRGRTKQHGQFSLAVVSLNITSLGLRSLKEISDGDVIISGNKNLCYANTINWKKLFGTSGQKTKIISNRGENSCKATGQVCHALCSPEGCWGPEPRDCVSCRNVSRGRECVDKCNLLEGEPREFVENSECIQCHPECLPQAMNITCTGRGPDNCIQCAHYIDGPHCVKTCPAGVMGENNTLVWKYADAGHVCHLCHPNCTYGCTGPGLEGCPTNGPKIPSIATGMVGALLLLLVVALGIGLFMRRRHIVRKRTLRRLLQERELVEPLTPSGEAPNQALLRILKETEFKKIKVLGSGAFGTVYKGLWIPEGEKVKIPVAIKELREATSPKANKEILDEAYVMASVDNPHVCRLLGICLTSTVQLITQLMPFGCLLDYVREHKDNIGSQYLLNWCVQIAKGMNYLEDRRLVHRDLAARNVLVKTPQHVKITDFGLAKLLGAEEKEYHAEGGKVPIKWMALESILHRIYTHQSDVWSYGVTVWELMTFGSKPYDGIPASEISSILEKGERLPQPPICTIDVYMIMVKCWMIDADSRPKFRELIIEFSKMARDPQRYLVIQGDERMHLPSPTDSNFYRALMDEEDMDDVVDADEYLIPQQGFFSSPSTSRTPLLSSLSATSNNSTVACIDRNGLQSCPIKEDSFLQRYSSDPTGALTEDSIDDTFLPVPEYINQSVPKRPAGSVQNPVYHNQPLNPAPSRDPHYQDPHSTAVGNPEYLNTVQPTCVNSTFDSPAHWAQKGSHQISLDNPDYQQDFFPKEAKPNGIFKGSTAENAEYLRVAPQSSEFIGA

| SMILES | IC50 (SOS1-KRAS [1]) | Kd [2] | efflux ratio at 10 µM [3] | other results |
| --- | --- | --- | --- | --- |
| CC(C)c1noc2ncc(C(=O)NC(C)c3cccc(S(N)(=O)=O)c3)cc12 (stereo unspecified) | 1190 nM | 937 nM |  |  |
| COc1cc2nc(C)nc(N[C@H](C)c3cccc(C(F)(F)F)c3)c2cc1OC | 106 nM | 104 nM | 0.3 | IC50 [4]: > 20000 nM |
| COc1cc2nc(C)nc(N[C@H](C)c3cccc(S(N)(=O)=O)c3)c2cc1OC | 56 nM | 16 nM | 50 | IC50 [4]: > 20000 nM |
| Cc1nc(N[C@H](C)c2cc(N)cc(C(F)(F)F)c2)c2cc(F)ccc2n1 |  | 751 nM |  | EC50 (SOS1-KRAS [5]): 939 nM |
| Cc1nc(N[C@H](C)c2cc(N)cc(C(F)(F)F)c2)c2cc(Cl)ccc2n1 | 3830 nM | 1490 nM |  |  |
| COc1cc2nc(C)nc(N[C@H](C)c3cccc(N)c3)c2cc1OC | 355 nM | 123 nM | 1.3 |  |
| CC(=O)Nc1cccc(-n2c(=O)n(C3CC3)c(=O)c3c(Nc4ccc(I)cc4F)n(C)c(=O)c(C)c32)c1 |  |  |  | Activity (DLD-1 [6]): Active |
| CN(C)C/C=C/C(=O)Nc1cc2c(Nc3ccc(F)c(Cl)c3)ncnc2cc1O[C@H]1CCOC1 [AFATINIB] |  |  |  | Activity (DLD-1 [7]): Active; inhibition in vivo at 50 mg/kg [8]: 7% |
| COc1cc2nc(C)nc(N[C@H](C)c3cc(N)cc(C(F)(F)F)c3)c2cc1OC | 15 nM | 16 nM | 0.7 |  |
| COc1cc2nc(C)nc(N[C@H](C)c3cc(N)cc(C(F)(F)F)c3)c2cc1O[C@H]1CCOC1 |  |  |  | Activity (DLD-1 [9]): Active; bioavailability [10]: 100%; Stability [11]: 14%; Stability [12]: 28%; bioavailability [13]: 100%; Stability [14]: 45%; inhibition in vivo at 50 mg/kg [8]: 37% |
| N[C@@H](Cc1c[nH]c2ccccc12)C(=O)NC1CCN(Cc2c[nH]c3ccccc23)CC1 |  | 19300 nM |  | EC50 (SOS1-KRAS [5]): 11100 nM |
| COc1ccc2nc(C)nc(N[C@H](C)c3cc(N)cc(C(F)(F)F)c3)c2c1 | 33 nM | 24 nM |  |  |
| COc1cc2ncnc(N[C@H](C)c3ccccc3)c2cc1OC | 1050 nM | 301 nM |  | IC50 [4]: 1 nM |
| COc1cc2nc(C)nc(N[C@H](C)c3ccccc3)c2cc1OC | 453 nM | 469 nM | 0.6 | IC50 [4]: 2800 nM |
